Source: patent US4666892A, “Method and composition for hepatitis treatment with pyrimidine nucleoside compounds” (Sloan-Kettering Memorial Cancer Center, priority 1986, dated 1987)
Values after ≈ are worked out from the molar mass of the structure shown. Where two headings read alike, the source gives them in different places.

What was measured:
HBV DNA polymerase [1] = molecular target: T1, HBV DNA polymerase (Hepatitis B virus genotype D subtype ayw, UniProt P03156); assay: HBV endogenous DNA polymerase assay, inhibition by nucleoside triphosphate analogs; assay type: biochemical, hepatitis B virion (HBV); conditions: for ID50 relative to ID50 of FIACTP: times more than FIACTP; for Nature of inhibition (Lineweaver-Burk plots): versus dGTP (ACVTP), dCTP (FIACTP), dTTP (BVdUTP); for Relative efficiency as inhibitor of HBV DNA polymerase: excess of nucleotides (50 uM)
T1 construct: HBV particles containing DNA polymerase activity were purified from the serum of an immunosuppressed patient; from tissue; host or cells: virus particles purified from the serum of an HBsAg-positive immunosuppressed patient
T1 sequence (P03156 whole entry): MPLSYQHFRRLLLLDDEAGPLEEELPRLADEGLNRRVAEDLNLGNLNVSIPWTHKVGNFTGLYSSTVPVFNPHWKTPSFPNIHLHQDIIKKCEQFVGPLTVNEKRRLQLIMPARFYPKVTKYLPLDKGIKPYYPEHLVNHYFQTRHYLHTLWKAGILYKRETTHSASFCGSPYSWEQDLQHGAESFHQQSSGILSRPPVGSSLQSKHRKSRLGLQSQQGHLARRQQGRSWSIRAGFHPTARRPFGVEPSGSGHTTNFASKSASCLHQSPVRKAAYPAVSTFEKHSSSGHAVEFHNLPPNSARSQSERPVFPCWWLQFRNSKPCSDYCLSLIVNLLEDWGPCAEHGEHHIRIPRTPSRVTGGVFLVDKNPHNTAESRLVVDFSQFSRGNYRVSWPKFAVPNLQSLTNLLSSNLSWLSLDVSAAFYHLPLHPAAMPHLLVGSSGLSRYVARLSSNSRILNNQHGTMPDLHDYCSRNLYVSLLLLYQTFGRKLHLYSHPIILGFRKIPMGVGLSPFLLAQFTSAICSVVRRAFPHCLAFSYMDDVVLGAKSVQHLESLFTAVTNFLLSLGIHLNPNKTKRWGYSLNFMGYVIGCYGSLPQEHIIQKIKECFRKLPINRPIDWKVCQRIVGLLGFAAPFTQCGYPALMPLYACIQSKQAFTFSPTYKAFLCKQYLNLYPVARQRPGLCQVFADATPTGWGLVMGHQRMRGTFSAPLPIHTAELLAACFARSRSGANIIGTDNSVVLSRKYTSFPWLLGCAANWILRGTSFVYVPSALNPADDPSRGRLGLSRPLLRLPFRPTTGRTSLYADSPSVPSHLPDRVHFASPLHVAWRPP
Excerpt: (§1) HBV particles containing DNA polymerase activity were purified from the serum of an immunosuppressed patient, positive for HBsAg. WHV was obtained from a serum pool of five woodchucks (Marmota monax) chronic carriers of the virus. The woodchucks initially imported from Pennsylvania (Dutchland Lab. Pennsylvania, USA) belonged to a colony followed for over one year by serological tests (Hantz et al, J. Virol. Metho. 7, 45-55 (1983)).
(§2) Virus was purified by centrifugation on sucrose and isopycnic CsCl gradients. (Hantz et al submitted for publication).
(§3) DNA polymerase was assayed as described by Kaplan et al (J. Virol., 12, 995 (1973)) with minor modification. The assay was performed in a 50 ul reaction mixture containing 50 mM Tris-HCl pH=7,6,40 mM MgC12, 60 mM NH4 Cl, 100 uM each dATP, dCTP and dGTP, 0.2-0.7 uM [^3 H] dTTP (30 Ci/mmol), 10 mM 2-mercaptoethanol, 0.5% Nonidet P 40 and enzyme. The reaction was started by addition of the virus particles with 2-mercaptoethanol and Nonidet P 40. Incubation was at 37° C. for 1 h. Acid insoluble radioactive material was collected on a glass fiber filter (GF/C Whatman) Filters were washed 5 times with cold 5% trichloracetic acid containing 10 mM sodium pyrophosphate, then with 95% ethanol. Radioactivity of the dried filter was measured in a liquid scintillation counter.
(§4) The relative sensitivities of both enzymes to CVTP, FIACTP and BVdUTP were compared using an excess of nucleotides. For each inhibitor, the concentration of the corresponding radioactive triphosphate was maintained at 2 to 3 times the Km value while the remaining nucleotides were in great excess (50 uM).
(§5) Although the mode of action for the various compounds is known to be different, the nature of ACVTP, FIACTP and BVdUTP inhibition of viral DNA synthesis catalyzed by HBV and WHV DNA polymerases was examined by determining the extent of inhibition with increasing concentrations of the substrates. In assays with ACVTP, [^3 H] dGTP was the rate limiting substrate while the other three nucleotides were in excess. The same conditions were used with [^3 H] dCTP for FIACTP and [^3 H] dTTP for BVdUTP inhibition. […] Similar results were obtained for WHV DNA polymerase.

WHV DNA polymerase [2] = molecular target: T2, WHV DNA polymerase (Woodchuck hepatitis B virus, UniProt P03160); assay: WHV endogenous DNA polymerase assay, inhibition by nucleoside triphosphate analogs; assay type: biochemical; conditions: for ID50 relative to ID50 of FIACTP: times more than FIACTP; for Affinity of WHV DNA polymerase to the analog compared with HBV DNA polymerase: WHV versus HBV DNA polymerase
T2 construct: WHV was obtained from a serum pool of five woodchucks (Marmota monax) chronic carriers of the virus; from tissue; host or cells: virus particles purified from a serum pool of five chronically infected woodchucks (imported from Pennsylvania)
T2 sequence (P03160 whole entry): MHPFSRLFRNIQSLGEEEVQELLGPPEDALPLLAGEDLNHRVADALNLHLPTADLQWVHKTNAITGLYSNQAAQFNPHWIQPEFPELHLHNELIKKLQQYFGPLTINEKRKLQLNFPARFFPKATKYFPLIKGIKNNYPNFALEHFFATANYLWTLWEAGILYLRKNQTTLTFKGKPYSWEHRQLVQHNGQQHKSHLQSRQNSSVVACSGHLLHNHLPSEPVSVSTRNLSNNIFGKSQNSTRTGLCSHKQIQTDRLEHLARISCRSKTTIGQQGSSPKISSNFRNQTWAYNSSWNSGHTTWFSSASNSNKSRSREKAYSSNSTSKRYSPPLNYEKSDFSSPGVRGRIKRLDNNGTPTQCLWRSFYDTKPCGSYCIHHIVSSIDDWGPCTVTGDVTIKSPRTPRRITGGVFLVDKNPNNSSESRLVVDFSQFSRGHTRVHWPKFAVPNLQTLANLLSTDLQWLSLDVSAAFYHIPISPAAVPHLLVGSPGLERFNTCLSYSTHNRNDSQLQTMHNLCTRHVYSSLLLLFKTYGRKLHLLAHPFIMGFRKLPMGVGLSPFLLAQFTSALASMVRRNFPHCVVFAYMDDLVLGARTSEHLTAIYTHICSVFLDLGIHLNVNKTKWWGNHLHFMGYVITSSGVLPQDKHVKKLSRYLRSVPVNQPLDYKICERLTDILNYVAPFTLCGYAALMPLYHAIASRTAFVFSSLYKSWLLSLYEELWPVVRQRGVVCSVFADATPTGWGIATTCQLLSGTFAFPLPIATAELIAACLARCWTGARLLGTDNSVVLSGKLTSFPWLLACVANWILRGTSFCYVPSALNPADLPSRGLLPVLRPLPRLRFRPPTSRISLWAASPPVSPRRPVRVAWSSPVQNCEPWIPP
Excerpt: as §1, §2, §3, §4, §5

HBV DNA polymerase [3] = molecular target: T1, HBV DNA polymerase; assay: Time course of viral DNA synthesis with the analog as alternate substrate; assay type: biochemical, hepatitis B virion (HBV); conditions: for DNA synthesis when the natural triphosphate is substituted by the analog: ara-TTP for dTTP, ara-CTP for dCTP, ACVTP for dGTP; for Viral DNA syntheses with dTTP substituted by the analog: [3H] dATP labelled substrate
Protocol: as §3
The [^32 p] DNA product by the endogenous DNA polymerase reaction was analysed by agarose gel electrophoresis as described by Summers et al (Proc. Natl. Acad. Sci. U.S.A. 72, 4597-4601 (1975)). The reaction was made in 15 ul of the standard DNA polymerase mixture with 1 uM of [^32 p] dCTP (500 Ci/mmol) as labelled nucleotide.
After 2 h incubation at 37° C., the reaction was terminated by the addition of 20 ul of 10 mM Tris, 10 mM EDTA, 0, 1 mg per ml of proteinase K, 0, 1% (wt/vol) sodium dodecyl sulfate, followed by further incubation for 60 mn at 37° C. 5 ul of 5% (wt/vol) sucrose, 1% bromophenol blue was added, the entire mixture was heated for […] at 65° C., immediately colded at 4° C. and then analyzed by electrophoresis on a horizontal slab gel of 1% agarose. After electrophoresis, the gel was dried and developed by autoradiography.
To determine the effect of the three analogs on viral DNA synthesis, a time course experiment was performed with HBV DNA polymerase. [^3 ] dATP was used as the labelled substrate. […] The substitution of dTTP by BVdUTP permitted the viral DNA syntheses up to 46 percent of the control after 3 h of reaction. This value increased to 67 percent of the optimal activity after 4 h of reaction. […] The DNA synthesized with BVdUTP as alternate substrate was analyzed by agarose gel electrophoresis.

HBV DNA polymerase [4] = molecular target: T1, HBV DNA polymerase; assay: Time course of HBV DNA synthesis, normal substrate added after 120 min with analog; assay type: biochemical, hepatitis B virion (HBV); conditions: for HBV DNA synthesis after addition of the normal substrate at 120 min of reaction with the analog: ACVTP 5 uM then 100 um dGTP, ara-ATP then dATP, ara-CTP then dCTP
Protocol: as §3
The effect of ACVTP on HBV DNA synthesis was also studied in a time course experiment ^3 H] dTTP was the labelled substrate. The reaction was initiated without dGTP or with 5 um ACVTP instead of dGTP. […] After 120 min of reaction, 100 uM of dGTP was added. In the assay without dGTP only, the addition of dGTP increased DNA synthesis as expected.

HBV replication = conditions: patients with chronic hepatitis B; Weller et al 1982, 1983; cited from earlier work
WHV DNA polymerase [5] = molecular target: T2, WHV DNA polymerase; assay: Analog as alternate substrate of WHV DNA polymerase; assay type: biochemical
Solubility in water = assay type: physicochemical
Excerpt: These compounds are soluble in water and therefore water or water based solutions are preferred as solvents for treating patients. The solubilities are as follows:
The solubility of these compounds can be increased by adding acid or base to the aqueous solvent.

[6] = water, at 28°, read-out: Solubility

Nc1nc2c(ncn2COCCOP(=O)(O)OP(=O)(O)OP(=O)(O)O)c(=O)[nH]1 [ACVTP]
ID50 relative to ID50 of FIACTP (HBV DNA polymerase [1]; HBV DNA polymerase): 18 times
Nature of inhibition (Lineweaver-Burk plots) (HBV DNA polymerase [1]; HBV DNA polymerase): competitive
ID50 relative to ID50 of FIACTP (WHV DNA polymerase [2]; WHV DNA polymerase): 18 times
Affinity of WHV DNA polymerase to the analog compared with HBV DNA polymerase (WHV DNA polymerase [2]): lower affinity
DNA synthesis when the natural triphosphate is substituted by the analog (HBV DNA polymerase [3]): did not increase the polymerization process
Incorporation of [3H] dTMP with analog instead of dGTP (HBV DNA polymerase [4]; 5 um ACVTP instead of dGTP, first 120 min): no incorporation
HBV DNA synthesis when reaction is started with analog and dGTP together (HBV DNA polymerase [4]; ACVTP 5 uM and dGTP 100 uM from start): a significant DNA synthesis was observed
HBV DNA synthesis after addition of the normal substrate at 120 min of reaction with the analog (HBV DNA polymerase [4]): no DNA synthesis was observed

Nc1nc2c(ncn2COCCO)c(=O)[nH]1 [ACV]
In vivo inhibition of HBV replication (HBV replication): inhibition of HBV replication

O=c1[nH]c(=O)n([C@H]2C[C@H](O)[C@@H](COP(=O)(O)OP(=O)(O)OP(=O)(O)O)O2)cc1/C=C/Br [BVdUTP]
ID50 relative to ID50 of FIACTP (HBV DNA polymerase [1]; HBV DNA polymerase): 5 times
Nature of inhibition (Lineweaver-Burk plots) (HBV DNA polymerase [1]; HBV DNA polymerase): competitive
ID50 relative to ID50 of FIACTP (WHV DNA polymerase [2]; WHV DNA polymerase): 5 times
Affinity of WHV DNA polymerase to the analog compared with HBV DNA polymerase (WHV DNA polymerase [2]): lower affinity
DNA synthesized with analog as alternate substrate (agarose gel electrophoresis) (HBV DNA polymerase [3]; HBV DNA): Only incomplete filling of the single stranded region
Efficiency as alternate substrate (HBV DNA polymerase [3]; HBV DNA polymerase): most efficient alternate substrate
Viral DNA syntheses with dTTP substituted by the analog (HBV DNA polymerase [3]; after 3 h of reaction): 46% of the control
Viral DNA syntheses with dTTP substituted by the analog (HBV DNA polymerase [3]; after 4 h of reaction): 67% of the optimal activity
DNA synthesized with analog as alternate substrate (agarose gel electrophoresis) (WHV DNA polymerase [5]; WHV DNA): Only incomplete filling of the single stranded region
Efficiency as alternate substrate (WHV DNA polymerase [5]; WHV DNA polymerase): most efficient alternate substrate

Nc1nc(=O)n([C@@H]2O[C@H](CO)[C@@H](O)[C@@H]2F)cc1I [FIAC, 2'-fluoro-2'-deoxy-arabinosyl-5-iodocytosine]
solubility (Solubility in water; water with 1 eq hcl, aqueous solvent with about one molar equivalent of hydrochloric acid, read-out: Solubility with added acid): ~250 mg/mL
solubility (Solubility in water; water, at 21°, read-out: Solubility): 7.2 mg/mL (≈ 19.4 mM)

Nc1nc(=O)n([C@@H]2O[C@H](COP(=O)(O)OP(=O)(O)OP(=O)(O)O)[C@@H](O)[C@@H]2F)cc1I [FIACTP]
IC50 (HBV DNA polymerase [1]; HBV DNA polymerase, radioactive triphosphate at 2 to 3 times Km, remaining nucleotides 50 uM, read-out: ID50 (concentration of triphosphate required to inhibit 50 percent of DNA polymerase)): 50 nM
Nature of inhibition (Lineweaver-Burk plots) (HBV DNA polymerase [1]; HBV DNA polymerase): competitive
Relative efficiency as inhibitor of HBV DNA polymerase (HBV DNA polymerase [1]): most efficient inhibitor
IC50 (WHV DNA polymerase [2]; WHV DNA polymerase, radioactive triphosphate at 2 to 3 times Km, remaining nucleotides 50 uM, read-out: ID50 (concentration of triphosphate required to inhibit 50 percent of DNA polymerase)): 50 nM
Affinity of WHV DNA polymerase to the analog compared with HBV DNA polymerase (WHV DNA polymerase [2]): lower affinity
Incorporation of [3H] dAMP with the analog instead of dCTP (HBV DNA polymerase [3]; after 3 h of reaction): about 10 % of the control

O=c1[nH]c(=O)n([C@@H]2O[C@H](CO)[C@@H](O)[C@@H]2F)cc1I [FIAU, 2'-fluoro-2'-deoxy-arabinosyl-5-iodouracil]
Solubility with added base (Solubility in water; aqueous solvent with one equivalent of sodium hydroxide (sodium salt)): increased many fold
solubility (Solubility in water; [6]): 4 mg/mL (≈ 10.8 mM)

Cc1cn([C@@H]2O[C@H](CO)[C@@H](O)[C@@H]2F)c(=O)[nH]c1=O [FMAU, 2'-fluoro-2'-deoxy-arabinosyl-5-methyluracil]
solubility (Solubility in water; water, at 24°, read-out: Solubility): 66 mg/mL (≈ 254 mM)
solubility (Solubility in water; [6]): 81 mg/mL (≈ 311 mM)

Nc1ncnc2c1ncn2[C@@H]1O[C@H](COP(=O)(O)OP(=O)(O)OP(=O)(O)O)[C@@H](O)[C@@H]1O [ara-ATP]
HBV DNA synthesis after addition of the normal substrate at 120 min of reaction with the analog (HBV DNA polymerase [4]): increased the HBV DNA synthesis

Nc1ccn([C@@H]2O[C@H](COP(=O)(O)OP(=O)(O)OP(=O)(O)O)[C@@H](O)[C@@H]2O)c(=O)n1 [ara-CTP]
Relative efficiency as inhibitor of HBV DNA polymerase (HBV DNA polymerase [1]): least efficient
DNA synthesis when the natural triphosphate is substituted by the analog (HBV DNA polymerase [3]): no significant incorporation
HBV DNA synthesis after addition of the normal substrate at 120 min of reaction with the analog (HBV DNA polymerase [4]): increased the HBV DNA synthesis

Cc1cn([C@@H]2O[C@H](COP(=O)(O)OP(=O)(O)OP(=O)(O)O)[C@@H](O)[C@@H]2O)c(=O)[nH]c1=O [ara-TTP]
DNA synthesis when the natural triphosphate is substituted by the analog (HBV DNA polymerase [3]): no significant DNA synthesis
